Among the data in patent publication US9682925B2, “Cyclopropaneamine compound” (TAKEDA PHARMACEUTICAL COMPANY LIMITED, priority 2011, dated 2017) are IC50 values, retold here.

Structures can show the parent of a compound that is named as a salt.

What all share (assay type): biochemical
The target in one assay is T1, human LSD1(171-852) (Homo sapiens, UniProt O60341).
T1 construct: to give hLSD1(171-852) purified product; made in house; host or cells: Escherichia coli C43(DE3) pLysS
Put plainly: Measurement of LSD1 inhibitory activity (time-resolved fluorescence, biotin-histone H3 mono methylated K4 peptide). The conditions noted are these: read-out: LSD1 IC50 value.

A further assay addresses T2, MAO-B (Homo sapiens, UniProt P27338).
T2 construct: purchased Sigma-Aldrich Co. LLC
T2 sequence (P27338 1-520): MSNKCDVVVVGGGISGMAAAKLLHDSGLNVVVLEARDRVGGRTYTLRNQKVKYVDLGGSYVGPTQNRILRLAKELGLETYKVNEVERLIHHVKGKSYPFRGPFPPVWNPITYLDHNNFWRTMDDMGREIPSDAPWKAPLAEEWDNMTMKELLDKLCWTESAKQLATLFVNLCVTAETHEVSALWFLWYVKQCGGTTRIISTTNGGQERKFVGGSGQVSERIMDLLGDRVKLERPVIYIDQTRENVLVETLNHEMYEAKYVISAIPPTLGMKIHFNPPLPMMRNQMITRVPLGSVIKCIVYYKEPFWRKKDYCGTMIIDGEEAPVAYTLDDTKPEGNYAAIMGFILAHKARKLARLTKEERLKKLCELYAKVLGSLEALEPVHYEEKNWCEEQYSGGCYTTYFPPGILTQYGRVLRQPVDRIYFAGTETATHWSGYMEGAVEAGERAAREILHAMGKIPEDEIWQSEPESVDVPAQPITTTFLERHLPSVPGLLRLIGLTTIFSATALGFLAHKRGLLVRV
Kind of assay: Measurement of MAO-B inhibitory activity (MAO-Glo Assay). A digest of the protocol: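 Percent inhibition was calculated from luciferin-based luminescence, corrected with a blank lacking enzyme and a control lacking compound. The reaction ran 60 min at room temperature after adding MAO substrate (16 µM as added). This followed a 10 min compound–enzyme preincubation in HEPES pH 7.5 buffer.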

The target in another assay is T3, MAO-A (Homo sapiens, UniProt P21397).
T3 construct: purchased Sigma-Aldrich Co. LLC
T3 sequence (P21397 1-527): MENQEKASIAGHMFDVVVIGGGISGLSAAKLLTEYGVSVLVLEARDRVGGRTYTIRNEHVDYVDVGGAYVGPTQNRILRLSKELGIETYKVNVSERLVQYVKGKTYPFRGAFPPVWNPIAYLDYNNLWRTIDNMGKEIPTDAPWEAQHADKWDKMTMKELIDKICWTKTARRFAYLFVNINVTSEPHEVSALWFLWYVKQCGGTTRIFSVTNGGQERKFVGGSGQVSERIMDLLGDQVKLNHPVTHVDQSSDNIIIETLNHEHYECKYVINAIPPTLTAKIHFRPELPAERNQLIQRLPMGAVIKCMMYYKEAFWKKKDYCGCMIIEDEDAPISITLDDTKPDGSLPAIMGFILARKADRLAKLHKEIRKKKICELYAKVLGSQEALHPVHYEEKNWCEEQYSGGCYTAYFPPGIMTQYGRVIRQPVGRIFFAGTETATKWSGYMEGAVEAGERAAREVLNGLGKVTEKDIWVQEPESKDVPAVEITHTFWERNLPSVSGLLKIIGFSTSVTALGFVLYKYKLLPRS
Put plainly: Measurement of MAO-A inhibitory activity (MAO-Glo Assay). A digest of the protocol: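 MAO-A (400 ng) was pre-incubated with compound 10 min at room temperature in 100 mM HEPES pH 7.5, 5% glycerol, then MAO substrate (160 μM stock) added for 60 min. Luciferin detection reagent, 20 min, luminescence; % inhibition against no-compound control minus no-enzyme blank.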

Take `O=C(Nc1ccc([C@@H]2C[C@H]2NCC2CC2)cc1)c1ccc(-c2cnco2)cc1` (relative stereo) [Example 95, N-(4-{trans-2-[(cyclopropylmethyl)-amino]cyclopropyl}-phenyl)-4-(1,3-oxazol-5-yl)benzamide]: the IC50 is under 0.1 µM on human LSD1(171-852), over 10 µM against MAO-B and over 10 µM at MAO-A.

As for `O=C(Nc1ccc([C@@H]2C[C@H]2NCC2CC2)cc1)c1ccc(-c2ccncc2)cc1` (relative stereo) [Example 96, N-(4-{trans-2-[(cyclopropylmethyl)-amino]cyclopropyl}-phenyl)-4-(pyridin-4-yl)benzamide], the figures for the IC50 at human LSD1(171-852), on MAO-B and against MAO-A were under 0.1 µM, over 10 µM and over 10 µM, respectively.

As for `O=C(Nc1ccc([C@@H]2C[C@H]2NCC2CC2)cc1)c1ccc2nc(-c3ccsc3)[nH]c2c1` (relative stereo) [Example 97, N-(4-{trans-2-[(cyclopropylmethyl)-amino]cyclopropyl}-phenyl)-2-(3-thienyl)-1H-benzimidazole-6-carboxamide], the half-inhibitory concentration (IC50) on human LSD1(171-852) was under 0.1 µM; against MAO-B, over 10 µM; at MAO-A, over 10 µM.

`O=C(Nc1ccc([C@@H]2C[C@H]2NCC2CC2)cc1)c1ccc2nc(-c3ccco3)[nH]c2c1` (relative stereo) [Example 98, N-(4-{trans-2-[(cyclopropylmethyl)-amino]cyclopropyl}-phenyl)-2-(2-furyl)-1H-benzimidazole-6-carboxamide]: the IC50 was under 0.1 µM at human LSD1(171-852), over 10 µM against MAO-B and over 10 µM against MAO-A.

With `O=C(Nc1ccc([C@@H]2C[C@H]2NCC2CC2)cc1)c1ccc2[nH]ncc2c1` (relative stereo) [Example 99, N-(4-{trans-2-[(cyclopropylmethyl)-amino]cyclopropyl}-phenyl)-1H-indazole-5-carboxamide], the IC50 at human LSD1(171-852) is under 0.1 µM; against MAO-B it was over 10 µM; against MAO-A, over 10 µM.

`O=C(Nc1ccc([C@@H]2C[C@H]2NCC2CC2)cc1)c1cccc(-n2cnnn2)c1` (relative stereo) [Example 100, N-(4-{trans-2-[(cyclopropylmethyl)-amino]cyclopropyl}-phenyl)-3-(1H-tetrazol-1-yl)benzamide]: the results for the IC50 at human LSD1(171-852), at MAO-B and against MAO-A were under 0.1 µM, over 10 µM and over 10 µM, respectively.

With `Cc1nc(-c2cccc(C(=O)Nc3ccc([C@@H]4C[C@H]4NCC4CC4)cc3)c2)cs1` (relative stereo) [Example 101, N-(4-{trans-2-[(cyclopropylmethyl)-amino]cyclopropyl}-phenyl)-3-(2-methyl-1,3-thiazol-4-yl)benzamide], the IC50 at human LSD1(171-852) was under 0.1 µM; against MAO-B, over 10 µM; on MAO-A, over 10 µM.

As to `O=C(Nc1ccc([C@@H]2C[C@H]2NCC2CC2)cc1)c1ccc(-c2nnn[nH]2)cc1` (relative stereo) [Example 102, N-(4-{trans-2-[(cyclopropylmethyl)-amino]cyclopropyl}-phenyl)-4-(1H-tetrazol-5-yl)benzamide], the IC50 at human LSD1(171-852) was 0.2 µM; on MAO-B it was over 10 µM; on MAO-A it was over 10 µM.

For `O=C(Nc1ccc([C@@H]2C[C@H]2NCC2CC2)cc1)c1coc(-c2ccccc2)n1` (relative stereo) [Example 103, N-(4-{trans-2-[(cyclopropylmethyl)-amino]cyclopropyl}-phenyl)-2-phenyl-1,3-oxazole-4-carboxamide], the concentration for half-maximal inhibition (IC50) at human LSD1(171-852) is under 0.1 µM; on MAO-B, over 10 µM; against MAO-A, over 10 µM.

Turning to `O=C(Nc1ccc([C@@H]2C[C@H]2NCC2CC2)cc1)c1cnc(-c2ccccc2)o1` (relative stereo) [Example 104, N-(4-{trans-2-[(cyclopropylmethyl)-amino]cyclopropyl}-phenyl)-2-phenyl-1,3-oxazole-5-carboxamide], the IC50 at human LSD1(171-852) is under 0.1 µM; against MAO-B it was over 10 µM; against MAO-A, over 10 µM.

As to `Cc1ccc(C(=O)Nc2ccc([C@@H]3C[C@H]3NCC3CC3)cc2)cc1C` (relative stereo) [Example 105, N-(4-{trans-2-[(cyclopropylmethyl)amino]cyclopropyl}phenyl)-3,4-dimethylbenzamide hydrochloride], the IC50 is under 0.1 µM on human LSD1(171-852), over 10 µM on MAO-B and over 10 µM against MAO-A.

`Cc1ccc(C)c(C(=O)Nc2ccc([C@@H]3C[C@H]3NCC3CC3)cc2)c1` (relative stereo) [Example 106, N-(4-{trans-2-[(cyclopropylmethyl)amino]cyclopropyl}phenyl)-2,5-dimethylbenzamide hydrochloride]: the IC50 at human LSD1(171-852) was under 0.1 µM; on MAO-B, over 10 µM; on MAO-A, over 10 µM.

As for `O=C(Nc1ccc([C@@H]2C[C@H]2NCc2ccc3nccn3c2)cc1)c1cccc(C(F)(F)F)c1` (relative stereo) [Example 107, N-(4-{trans-2-[(imidazo[1,2-a]pyridin-6-ylmethyl)amino]cyclopropyl}phenyl)-3-(trifluoromethyl)benzamide dihydrochloride], the values for the IC50 at human LSD1(171-852), against MAO-B and against MAO-A were under 0.1 µM, over 10 µM and 4.3 µM, respectively.

In the case of `O=C(Nc1ccc([C@@H]2C[C@H]2NCC2CC2)cc1)c1ccc(OC(F)(F)F)cc1` (relative stereo) [Example 108, N-(4-{trans-2-[(cyclopropylmethyl)amino]cyclopropyl}phenyl)-4-(trifluoromethoxy)benzamide hydrochloride], the IC50 was under 0.1 µM on human LSD1(171-852), over 10 µM on MAO-B and over 10 µM at MAO-A.

As to `O=C(Nc1ccc([C@@H]2C[C@H]2NCC2CC2)cc1)c1cccc(OC(F)(F)F)c1` (relative stereo) [Example 109, N-(4-{trans-2-[(cyclopropylmethyl)amino]cyclopropyl}phenyl)-3-(trifluoromethoxy)benzamide hydrochloride], the IC50 at human LSD1(171-852) is under 0.1 µM; against MAO-B, over 10 µM; against MAO-A, over 10 µM.

Regarding `CN(C)c1ccc(CN[C@@H]2C[C@H]2c2ccc(NC(=O)c3cccc(C(F)(F)F)c3)cc2)cc1` (relative stereo) [Example 110, N-[4-(trans-2-{[4-(dimethylamino)benzyl]amino)cyclopropyl}phenyl]-3-(trifluoromethyl)benzamide dihydrochloride], the concentration for half-maximal inhibition (IC50) on human LSD1(171-852) was under 0.1 µM; against MAO-B it was over 10 µM; at MAO-A, over 10 µM.

`O=C(Nc1ccc([C@@H]2C[C@H]2NC2CCN(C3CC3)CC2)cc1)c1cccc(C(F)(F)F)c1` (relative stereo) [Example 111, N-(4-{trans-2-[(1-cyclopropylpiperidin-4-yl)amino]cyclopropyl}phenyl)-3-(trifluoromethyl)benzamide dihydrochloride]: the IC50 was under 0.1 µM at human LSD1(171-852), over 10 µM against MAO-B and over 10 µM against MAO-A.

In the case of `CC(C)N1CCC(N[C@@H]2C[C@H]2c2ccc(NC(=O)c3cccc(C(F)(F)F)c3)cc2)CC1` (relative stereo) [Example 112, N-[4-(trans-2-{[1-(1-methylethyl)piperidin-4-yl]amino}cyclopropyl)phenyl]-3-(trifluoromethyl)benzamide dihydrochloride], the IC50 is under 0.1 µM on human LSD1(171-852), over 10 µM at MAO-B and over 10 µM at MAO-A.

As to `O=C(Nc1ccc([C@@H]2C[C@H]2NCC2CC2)cc1)c1ccc(-c2cc[nH]n2)cc1` (relative stereo) [Example 113, N-(4-{trans-2-[(cyclopropylmethyl)amino]cyclopropyl}phenyl)-4-(1H-pyrazol-3-yl)benzamide hydrochloride], the IC50 at human LSD1(171-852) is under 0.1 µM; against MAO-B it was over 10 µM; at MAO-A, 5.7 µM.

On to `O=C(Nc1ccc([C@@H]2C[C@H]2NCC2CC2)cc1)c1ccc2[nH]ccc2c1` (relative stereo) [Example 114, N-(4-{trans-2-[(cyclopropylmethyl)amino]cyclopropyl}phenyl)-1H-indole-5-carboxamide trifluoroacetate], for which the IC50 was under 0.1 µM at human LSD1(171-852), over 10 µM on MAO-B and over 10 µM at MAO-A.
